Measured values as given in US12492188B2, “1H-benzo[D]imidazole derivatives as TLR9 inhibitors for the treatment of fibrosis” (BRISTOL-MYERS SQUIBB COMPANY, priority 2020, dated 2025).
pIC50: −log10 of the molar value. Read-outs that look alike come from different tables or passages of the source.

What was measured:
Format in all cases: cell-based
[1] = target: T1, human TLR7 (Homo sapiens, UniProt Q9NYK1); experiment: TLR7 inhibition reporter assay (HEK-Blue cells, secreted embryonic alkaline phosphatase reporter); conditions: HEK-Blue cells overexpressing human TLR7, stimulated with gardiquimod 7.5 μM; read-out: TLR 7 IC50
T1 construct: host or cells: HEK-Blue cells (HEK293-derived reporter line)
T1 sequence (Q9NYK1 27-1049): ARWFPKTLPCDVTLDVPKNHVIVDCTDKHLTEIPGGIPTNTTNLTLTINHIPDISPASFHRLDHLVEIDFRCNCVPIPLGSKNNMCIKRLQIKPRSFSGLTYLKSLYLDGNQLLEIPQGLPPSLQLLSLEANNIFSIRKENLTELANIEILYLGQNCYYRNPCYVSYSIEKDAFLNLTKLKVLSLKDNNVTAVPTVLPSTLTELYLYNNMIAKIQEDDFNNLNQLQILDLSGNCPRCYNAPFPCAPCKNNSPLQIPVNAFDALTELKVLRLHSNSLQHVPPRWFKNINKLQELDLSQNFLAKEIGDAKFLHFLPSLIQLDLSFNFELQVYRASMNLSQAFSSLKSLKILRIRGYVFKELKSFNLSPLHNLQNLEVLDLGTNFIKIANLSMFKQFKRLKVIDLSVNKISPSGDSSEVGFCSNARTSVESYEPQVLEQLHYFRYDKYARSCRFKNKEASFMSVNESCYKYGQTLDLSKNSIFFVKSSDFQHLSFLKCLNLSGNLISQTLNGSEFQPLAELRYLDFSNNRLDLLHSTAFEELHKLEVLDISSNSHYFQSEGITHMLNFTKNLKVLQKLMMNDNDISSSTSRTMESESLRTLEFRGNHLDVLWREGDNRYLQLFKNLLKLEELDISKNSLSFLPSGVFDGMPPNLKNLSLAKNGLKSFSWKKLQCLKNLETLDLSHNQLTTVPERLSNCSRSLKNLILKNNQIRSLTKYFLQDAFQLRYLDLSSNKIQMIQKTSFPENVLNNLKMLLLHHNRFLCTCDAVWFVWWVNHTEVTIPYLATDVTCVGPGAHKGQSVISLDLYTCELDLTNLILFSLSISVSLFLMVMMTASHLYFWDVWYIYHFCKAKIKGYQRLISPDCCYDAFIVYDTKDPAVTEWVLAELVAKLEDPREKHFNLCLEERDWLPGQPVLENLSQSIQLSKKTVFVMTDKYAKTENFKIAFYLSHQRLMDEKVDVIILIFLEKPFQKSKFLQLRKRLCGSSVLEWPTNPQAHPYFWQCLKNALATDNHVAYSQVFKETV
Outline: (§1)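 Cells seeded at 15000 (TLR7), 20,000 (TLR8) or 25,000 (TLR9) per well; compound 0.05 nM–50 μM, 30 min RT pre-incubation. Agonists: gardiquimod 7.5 μM, R848 15.9 μM, ODN2006 5 nM respectively. 22 h, 37 °C; SEAP via HEK-Blue Detection; % inhibition vs agonist+DMSO and known-inhibitor wells.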

[2] = target: T2, human TLR8 (Homo sapiens, UniProt Q9NR97); experiment: TLR8 inhibition reporter assay (HEK-Blue cells, secreted embryonic alkaline phosphatase reporter); conditions: HEK-Blue cells overexpressing human TLR8, stimulated with R848 15.9 μM; read-out: TLR 8 IC50
T2 construct: host or cells: HEK-Blue cells (HEK293-derived reporter line)
T2 sequence (Q9NR97 27-1041): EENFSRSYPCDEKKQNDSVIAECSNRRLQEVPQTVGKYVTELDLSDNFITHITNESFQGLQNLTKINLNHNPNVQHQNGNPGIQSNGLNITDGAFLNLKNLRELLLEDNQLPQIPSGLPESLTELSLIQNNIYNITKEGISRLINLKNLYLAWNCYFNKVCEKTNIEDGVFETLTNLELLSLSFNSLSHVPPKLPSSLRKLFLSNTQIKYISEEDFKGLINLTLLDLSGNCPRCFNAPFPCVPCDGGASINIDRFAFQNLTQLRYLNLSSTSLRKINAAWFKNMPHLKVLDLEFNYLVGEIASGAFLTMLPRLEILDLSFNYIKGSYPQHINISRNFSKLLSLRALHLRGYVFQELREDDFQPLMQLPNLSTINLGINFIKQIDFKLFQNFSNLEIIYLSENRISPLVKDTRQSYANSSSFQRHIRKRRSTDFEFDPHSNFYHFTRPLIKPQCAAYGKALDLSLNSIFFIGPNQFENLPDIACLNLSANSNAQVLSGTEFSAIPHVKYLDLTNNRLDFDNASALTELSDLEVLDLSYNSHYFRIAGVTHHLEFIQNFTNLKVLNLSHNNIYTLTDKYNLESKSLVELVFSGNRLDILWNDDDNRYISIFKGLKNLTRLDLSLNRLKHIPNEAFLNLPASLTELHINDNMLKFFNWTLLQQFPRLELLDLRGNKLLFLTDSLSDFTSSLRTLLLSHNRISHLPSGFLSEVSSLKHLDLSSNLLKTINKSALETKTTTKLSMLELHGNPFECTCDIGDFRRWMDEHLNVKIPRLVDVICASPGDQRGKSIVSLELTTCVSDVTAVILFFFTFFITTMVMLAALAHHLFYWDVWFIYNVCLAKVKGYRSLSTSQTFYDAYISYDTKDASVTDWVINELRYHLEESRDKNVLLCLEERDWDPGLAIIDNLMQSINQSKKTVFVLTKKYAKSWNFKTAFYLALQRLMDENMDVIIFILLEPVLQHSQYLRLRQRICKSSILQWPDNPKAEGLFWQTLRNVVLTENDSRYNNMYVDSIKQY
Outline: as §1

[3] = target: T3, human TLR9 (Homo sapiens, UniProt Q9NR96); experiment: TLR9 inhibition reporter assay (HEK-Blue cells, secreted embryonic alkaline phosphatase reporter)
T3 construct: host or cells: HEK-Blue cells (HEK293-derived reporter line)
T3 sequence (Q9NR96 26-1032): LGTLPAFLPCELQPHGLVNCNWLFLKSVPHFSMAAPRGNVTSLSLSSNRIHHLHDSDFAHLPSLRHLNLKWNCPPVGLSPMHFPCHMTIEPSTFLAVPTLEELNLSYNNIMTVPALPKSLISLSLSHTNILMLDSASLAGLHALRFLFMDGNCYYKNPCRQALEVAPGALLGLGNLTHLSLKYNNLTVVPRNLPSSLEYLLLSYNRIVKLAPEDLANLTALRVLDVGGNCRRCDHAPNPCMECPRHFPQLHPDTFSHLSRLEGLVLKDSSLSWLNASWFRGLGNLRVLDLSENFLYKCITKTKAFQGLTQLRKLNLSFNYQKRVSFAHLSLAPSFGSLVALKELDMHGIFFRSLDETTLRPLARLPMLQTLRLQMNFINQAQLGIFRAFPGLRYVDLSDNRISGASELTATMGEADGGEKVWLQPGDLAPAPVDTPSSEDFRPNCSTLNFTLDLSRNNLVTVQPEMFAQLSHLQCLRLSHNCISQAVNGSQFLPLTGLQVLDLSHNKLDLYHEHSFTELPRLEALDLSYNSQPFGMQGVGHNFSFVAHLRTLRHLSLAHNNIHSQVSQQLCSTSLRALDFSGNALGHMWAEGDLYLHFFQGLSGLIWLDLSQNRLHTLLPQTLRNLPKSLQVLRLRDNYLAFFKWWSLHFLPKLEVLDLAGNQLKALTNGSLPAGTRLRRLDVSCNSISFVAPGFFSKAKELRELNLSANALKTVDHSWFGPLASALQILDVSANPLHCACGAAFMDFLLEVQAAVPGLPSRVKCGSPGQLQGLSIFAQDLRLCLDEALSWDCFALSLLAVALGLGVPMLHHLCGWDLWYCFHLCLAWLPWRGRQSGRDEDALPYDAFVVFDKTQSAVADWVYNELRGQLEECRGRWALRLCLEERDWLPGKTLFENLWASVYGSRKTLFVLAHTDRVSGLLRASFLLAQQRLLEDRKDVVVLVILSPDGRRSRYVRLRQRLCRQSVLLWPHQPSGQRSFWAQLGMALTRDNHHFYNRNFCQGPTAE
Outline: as §1

[4] = HEK-Blue cells overexpressing human TLR9, stimulated with ODN2006 5 nM, 22 hour incubation, reporter readout
[5] = HEK-Blue cells overexpressing human TLR9, stimulated with ODN2006 5 nM, read-out: TLR 9 IC50

Structure (SMILES)	pIC50 [1]	pIC50 [2]	pIC50 [3, 4]	pIC50 [3, 5]	pIC50 [3]
Cn1c(-c2ccc(S(C)(=O)=O)cc2)nc2cc(F)c(C3CCN(C4CC5CCC(C4)N5C4CCC4)CC3)cc21 (stereo not drawn) [Example 233, 6-(1-(8-cyclobutyl-8-azabicyclo[3.2.1]octan-3-yl)piperidin-4-yl)-5-fluoro-1-methyl-2-(4-(methylsulfonyl)phenyl)-1H-benzo[d]imidazole]	4.54	< 4.30		7.24	7.24
Cn1c(-c2ccc(S(C)(=O)=O)cc2)nc2cc(C3CCN(C4CCN(CC5COC5)CC4)CC3)cc(F)c21 [Example 204, 7-fluoro-1-methyl-2-(4-(methylsulfonyl)phenyl)-5-(1′-(oxetan-3-ylmethyl)-[1,4′-bipiperidin]-4-yl)-1H-benzo[d]imidazole]	< 4.30	< 4.30		6.11	6.11
Cc1cc(-c2ccc(C3CCN(C4CCOCC4)CC3)cc2)cc2c1nc(-c1ccc(S(C)(=O)=O)cc1)n2C [Example 364, 1,4-dimethyl-2-(4-(methylsulfonyl)phenyl)-6-(4-(1-(tetrahydro-2H-pyran-4-yl)piperidin-4-yl)phenyl)-1H-benzo[d]imidazole]	< 4.30	< 4.30	6.51		
CC(C)N1CCC(N2CCC(c3ccc4c(nc(-c5ccc(S(C)(=O)=O)cc5)n4C)c3F)CC2)CC1 [Example 88, 4-fluoro-5-(1′-isopropyl-[1,4′-bipiperidin]-4-yl)-1-methyl-2-(4-(methylsulfonyl)phenyl)-1H-benzo[d]imidazole]	< 4.30	< 4.30	6.44	6.44	
Cn1c(-c2ccc(S(C)(=O)=O)cc2)nc2cc(F)c(C3CCN(C4CCN(C5CCOCC5)CC4)CC3)cc21 [Example 226, 5-fluoro-1-methyl-2-(4-(methylsulfonyl)phenyl)-6-(1′-(tetrahydro-2H-pyran-4-yl)-[1,4′-bipiperidin]-4-yl)-1H-benzo[d]imidazole]	< 4.30	< 4.30		6.05	6.05

These reach a higher pIC50 [1]. Values come first.

pIC50 [1]	pIC50 [2]	pIC50 [3, 4]	pIC50 [3, 5]	pIC50 [3]	Structure (SMILES)
5.57	5.92	7.00	6.98		Cc1cc(-c2ccc(C3CCN(C4CCN(C5CC5)CC4)CC3)cc2)cc2c1nc(-c1ccc(S(C)(=O)=O)cc1)n2C [Example 401, 6-(4-(1′-cyclopropyl-[1,4′-bipiperidin]-4-yl)phenyl)-1,4-dimethyl-2-(4-(methylsulfonyl)phenyl)-1H-benzo[d]imidazole]
4.73	< 4.30		7.01	7.01	CC(C)CN1C2CCC1CC(N1CCC(c3ccc4nc(-c5ccc(S(C)(=O)=O)cc5)n(C)c4c3F)CC1)C2 (single isomer, unassigned) [Example 266, 7-fluoro-6-(1-(8-isobutyl-8-azabicyclo[3.2.1]octan-3-yl)piperidin-4-yl)-1-methyl-2-(4-(methylsulfonyl)phenyl)-1H-benzo[d]imidazole]
4.59	< 4.30	7.27			CC(C)N1C2CCC1CC(N1CCC(c3ccc4nc(-c5ccc(S(C)(=O)=O)cc5)n(C)c4c3F)CC1)C2 (single isomer, unassigned) [Example 103, 7-fluoro-6-(1-(8-isopropyl-8-azabicyclo[3.2.1]octan-3-yl)piperidin-4-yl)-1-methyl-2-(4-(methylsulfonyl)phenyl)-1H-benzo[d]imidazole]
5.54	< 4.30	7.64	7.64		COc1ccc(-c2nc3c(C)cc(C4CC5CCC(C4)N5C4CCN(CC(C)C)CC4)cc3n2C)cc1OC (stereo not drawn) [Example 50, 2-(3,4-dimethoxyphenyl)-6-(8-(1-isobutylpiperidin-4-yl)-8-azabicyclo[3.2.1]octan-3-yl)-1,4-dimethyl-1H-benzo[d]imidazole]
5.24	< 4.30	6.55	6.55		COc1ccc(-c2nc3cc(C4CCN(C5CCN(C(C)C)CC5)CC4)ccc3n2CC(F)F)cc1OC [Example 7, 1-(2,2-difluoroethyl)-2-(3,4-dimethoxyphenyl)-5-(1′-isopropyl-[1,4′-bipiperidin]-4-yl)-1H-benzo[d]imidazole]
4.83	< 4.60		7.08	7.08	Cc1cc(C2CCN(C3CC4CCC(C3)N4C3CCC3)CC2)cc2c1nc(-c1ccc(S(C)(=O)=O)cc1)n2C (single isomer, unassigned) [Example 152, 6-(1-(8-cyclobutyl-8-azabicyclo[3.2.1]octan-3-yl)piperidin-4-yl)-1,4-dimethyl-2-(4-(methylsulfonyl)phenyl)-1H-benzo[d]imidazole]
